The values below come from patent US20230115335A1, “PYRAZOLE DERIVATIVES WITH ANTICANCER ACTIVITY” (BOARD OF REGENTS, THE UNIVERSITY OF TEXAS SYSTEM, priority 2021, published 2023).

In data set [1] the test system is CEM cell line. Description: DNS cytotoxicity assay, CEM. The conditions noted are these: read-out: CEM CC50. It counts as cell-based, human. An excerpt: […] […] After treatment, images were acquired and analyzed to determine percentages of live/dead cells and their cytotoxicity. […] The Hs-27 non-cancerous human foreskin fibroblast cell line was used for comparison purposes.

In data set [2] the test system is MDA-MB231. Description: DNS cytotoxicity assay, MDA-MB-231. It counts as cell-based. The conditions noted are these: Homo sapiens, 72 hr incubations, read-out: Cell Line CC50 MDA-MD-231*. On the procedure: (§1) Since the non-adherent (free floating) lymphoma/leukemia cell lines divide faster than the adherent cell lines, they were incubated for a shorter period (48 h) of time with the compound.
(§2) Lymphoma/leukemia cell lines, which grow in suspension, were incubated for 48 h with the compounds. […] After treatment, images were acquired and analyzed to determine percentages of live/dead cells and their cytotoxicity. […] The Hs-27 non-cancerous human foreskin fibroblast cell line was used for comparison purposes.

Data set [3] in a line: DNS cytotoxicity assay, MCF10A. Format: cell-based. The conditions noted are these: human, MCF10A non-cancerous cells, 72 hr incubations, read-out: Cell Line CC50 MCF10A*. The procedure: as §1
The nature of data set [4]: DNS cytotoxicity assay, HS-27 non-cancerous fibroblast. It counts as cell-based. Conditions: human, Hs-27 non-cancerous foreskin fibroblast cells; 72 hr incubations; non-cancerous; read-out: Cell Line CC50 HS-27*. The procedure:
as §1, §2

Data set [5] has as its system Jurkat. Description: DNS cytotoxicity assay, Jurkat. Format: cell-based, human. Conditions: Homo sapiens, Jurkat; Lymphoma-Leukemia; 48 hrs. An excerpt:
Using the high throughput Differential Nuclear Staining (DNS) screening assay (Lema et al., Current Cellular Biochemistry 1, 1-14, 2011) 15 pyrazole compounds were synthesized and screened on the human T-cell Acute Lymphoblastic Leukemia CEM cell line (Tables 1 and 2). […] The compounds were synthesized based on a pyrazole backbone structure previously determined to have potent cytotoxic activity (FIG. 5). Several commercial and non-commercial analogues (see Table 3) have been tested and determined that the ones with highest activity have a similar structure circled in FIG. 5. […] SSK-3 has been tested on a few cancer cell lines (see Table 4) and also found to induce programmed cell death via a variety of biochemical assays. […] Since the non-adherent (free floating) lymphoma/leukemia cell lines divide faster than the adherent cell lines, they were incubated for a shorter period (48 h) of time with the compound.
SSK-3 has potent cytotoxic activity against a panel of human cancer cell lines. The cytotoxic activity of SSK-3 was examined by the DNS assay (Lema et al., Current Cellular Biochemistry 1, 1-14, 2011). Lymphoma/leukemia cell lines, which grow in suspension, were incubated for 48 h with the compounds. Since the adherent cells generally divide at a slower rate than the non-adherent cell lines, the MDA-MB231, HCC1419, T47D, COLO205, PANC-1, A-549 adherent cancer cells lines were incubated for 72 h in the presence of the compounds. After treatment, images were acquired and analyzed to determine percentages of live/dead cells and their cytotoxicity. […] The Hs-27 non-cancerous human foreskin fibroblast cell line was used for comparison purposes.

Data set [6] has as its system CEM cells. Description: Phosphatidylserine externalization, Annexin V-FITC/PI assay. It counts as cell-based, human. Conditions: positive control for death. The procedure:
FIG. 1. […] CEM cells were treated at the CC50 and twice (2×) that concentration of SSK-3. Note that PS externalization is an early marker of apoptosis. * Indicates P value less than 0.001.
SSK-3 induces significant phosphatidylserine externalization. To corrobotate whether SSK-3 utilizes apoptosis to induce cell death, we measured phosphatidylserine (PS) externalization in SSK-3-treated CEM cells by using the Annexin V-FITC/PI assay (3, 4).

Where [7] appears, read: Homo sapiens, CCRF-CEM, Initial Screen, DNS assay.

Molecules are shown by their SMILES. Read-outs that look alike come from different tables or passages of the source.

The term CC50 denotes the concentration at which the toxic effect on the cells reaches its halfway point. `O=C(N/N=C/c1cn(-c2ccccc2)nc1-c1cc2ccccc2oc1=O)c1n[nH]c2c1CCC2` [SSK-12]: the CC50 in data set [1] (setting [7]) came to 8.25 ± 0.26 µM.

On to `Cc1ccc2c(c1)/C(=N/NC(=O)c1n[nH]c3c1CCC3)C(=O)N2` [SSK-4], for which the CC50 in data set [1] (Initial Screen, DNS assay) was 5.02 ± 0.78 µM.

Take `COc1ccc(/C=N/NC(=O)c2n[nH]c3c2CCC3)cc1O` [P3C.10]: the CC50 in data set [2] came to 2.91 µM. Moreover, the CC50 at 72 h in data set [3] was 2.46 µM; in data set [4], more than 10 µM.

On to `CCN(CC)c1ccc(/C=N/NC(=O)c2n[nH]c3c2CCC3)cc1` [P3C.4], for which the CC50 in data set [2] turned out to be 2.91 µM. Besides, the 50% cytotoxic concentration (CC50) at 72 h in data set [3] was 2.46 µM; in data set [4], more than 10 µM.

Take `O=C(N/N=C/c1ccc(Br)cc1)c1n[nH]c2c1CCC2` [P3C.1]: the CC50 was found to be 0.097 µM in data set [2] and 0.39 µM in data set [5]. In addition, the CC50 at 72 h in data set [3] was 0.42 µM; in data set [4], 0.78 µM.

Turning to `O=C(N/N=C/c1cccc2ccccc12)c1n[nH]c2c1CCC2` [P3C.2], in data set [2], the cytotoxic concentration (CC50) came out at 1.83 µM. The figures for the CC50 at 72 h in data set [3] and in data set [4] were 0.53 µM and 4.1 µM, respectively.

Turning to `O=C(N/N=C/c1cn(-c2ccccc2)nc1-c1ccccc1)c1n[nH]c2c1CCC2` [SSK-7], the CC50 in data set [1] (setting [7]) worked out at 8.15 ± 0.23 µM.

Turning to `Cc1ccc(Cn2cc(COc3ccc(/C=N/NC(=O)c4n[nH]c5c4CCC5)cc3)nn2)cc1` [SSK-13], the CC50 in data set [1] (setting [7]) was more than 10 µM.

As to `O=C1Nc2ccc(F)cc2/C1=N/NC(=O)c1n[nH]c2c1CCC2` [SSK-2], in data set [1] (setting [7]), the CC50 was more than 10 µM.

As to `O=C(N/N=C1\C(=O)N(CN2CCOCC2)c2ccccc21)c1n[nH]c2c1CCC2` [SSK-5], the cytotoxic concentration (CC50) in data set [1] (Homo sapiens, CCRF-CEM) was more than 10 µM.

As to `O=C(N/N=C/c1ccc(OCc2cn(Cc3ccc([N+](=O)[O-])cc3)nn2)cc1)c1n[nH]c2c1CCC2` [SSK-15], the CC50 in data set [1] (setting [7]) is more than 10 µM.

With `O=C(N/N=C/c1ccccc1Br)c1n[nH]c2c1CCC2` [P3C.5], the CC50 in data set [2] is 9.88 µM. In addition, the CC50 at 72 h in data set [3] is 6.36 µM; in data set [4], more than 10 µM.

In the case of `COc1ccc(-c2nn(-c3ccccc3)cc2/C=N/NC(=O)c2n[nH]c3c2CCC3)cc1` [SSK-11], in data set [1] (setting [7]), the half-maximal cytotoxic concentration (CC50) was 3.14 ± 0.33 µM.

Turning to `O=C(N/N=C/c1cn(-c2ccccc2)nc1-c1ccc(Cl)cc1)c1n[nH]c2c1CCC2` [SSK-10], in data set [1] (setting [7]), the CC50 was 7.83 ± 0.13 µM.

For `O=C1Nc2ccccc2/C1=N/NC(=O)c1n[nH]c2c1CCC2` [SSK-1], in data set [1] (setting [7]), the CC50 was determined as 12.1 ± 1.11 µM.

Take `Cc1ccc(-c2nn(-c3ccccc3)cc2/C=N/NC(=O)c2n[nH]c3c2CCC3)cc1` [SSK-8]: the CC50 in data set [1] (setting [7]) was determined as 3.6 ± 0.16 µM.

In the case of `O=C(N/N=C/c1c(O)ccc2ccccc12)c1n[nH]c2c1CCCC2` [P3C.3], in data set [2], the cytotoxic concentration (CC50) came out at 1.61 µM. For the same compound, the half-maximal cytotoxic concentration (CC50) at 72 h was 2.16 µM in data set [3] and more than 10 µM in data set [4].

For `O=C(N/N=C/c1cc(Br)cc(Br)c1O)c1n[nH]c2c1CCC2` [P3C.6], the CC50 in data set [2] came out at 2.53 µM. Further, the results for the CC50 at 72 h in data set [3] and in data set [4] were 5.85 µM and 9.94 µM, respectively.

As to `O=C(N/N=C1\C(=O)N(CN2CCCCC2)c2ccccc21)c1n[nH]c2c1CCC2` [SSK-6], the CC50 in data set [1] (Homo sapiens, CCRF-CEM) was more than 10 µM.

Consider `O=C(N/N=C/c1ccc(OCc2cn(Cc3ccccc3)nn2)cc1)c1n[nH]c2c1CCC2` [SSK-14], for which the half-maximal cytotoxic concentration (CC50) in data set [1] (setting [7]) is more than 10 µM.

On to `OO` [H2O2, reference compound], for which the “percentage of PS externalization” value in data set [6] was approximately 78%.
